# Results published in US20110152094A1, “Herbicidal compositions comprising flufenacet” (Bayer CropScience AG, priority 2009, published 2011).
# Assays:
# Type in all cases: in vivo
# [1] = tested on: MATCH resistant (Matricaria chamomilla); assay: Greenhouse trial, PE application on resistant biotypes (test method 8); conditions: resistant biotype, g of AS/ha: (A) 90, (B) 1200, (A)+(B) 90 + 1200, (C) 10
# Protocol: (§1) In the standard design of the test, seeds of various broad-leaved weed and weed grass biotypes (origins) were sown in a 8-13 cm diameter pot filled with natural soil of a standard field soil (loamy silt; non-sterile) and covered with a covering soil layer of about 1 cm. The pots were then cultivated in a greenhouse (12-16 h of light, temperature day 20-22° C., night 15-18° C.) until the time of application. The pots were treated on a laboratory track sprayer with spray liquors comprising the compositions according to the invention, mixtures of the prior art or components used individually. Application of the active compounds or active compound combinations formulated as WG, WP, EC or otherwise was carried out at the appropriate growth stages of the plants. The application rate for the spray application was 100-600 l of water/ha. After the treatment, the plants were returned to the greenhouses.
# (§2) About 3 weeks after the application, the soil action or/and foliar action was assessed visually according to a scale of 0-100% in comparison to an untreated comparative group: 0%=no noticeable effect compared to the untreated comparative group; 100%=full effect compared to the untreated comparative group.
# (§3) (notes: the term “seeds” also includes vegetative propagation forms such as, for example, rhizome pieces; abbreviations used: h light=hours of illumination, g of AS/ha=gram of active substance per hectare, l/ha=liter per hectare, S=sensitive, R=resistant) • 1. Pre-emergence action against weeds: seeds of various broad-leaved weed and weed grass biotypes (origins) were sown in a 8-13 cm diameter pot filled with natural soil of a standard field soil (loamy silt; non-sterile) and covered with a covering soil layer of about 1 cm. The pots were then cultivated in a greenhouse (12-16 h of light, temperature day 20-22° C., night 15-18° C.) until the time of application. The pots were treated at the BBCH stage 00-10 of the seeds/plants on a laboratory track sprayer with spray liquors comprising the compositions according to the invention, mixtures or components used individually, as WG, WP, EC or other formulations. The application rate for the spray application was 100-600 l of water/ha. After the treatment, the plants were returned to the greenhouses and, when required, treated with fertilizer and watered. • 2. Post-emergence action against weeds: seeds of various broad-leaved weed and weed grass biotypes (origins) were sown in a 8-13 cm diameter pot filled with natural soil of a standard field soil (loamy silt; non-sterile) and covered with a covering soil layer of about 1 cm. The pots were then cultivated in a greenhouse (12-16 h of light, temperature day 20-22° C., night 15-18° C.) until the time of application. The pots were treated at various BBCH stages between 11-25 of the seeds/plants, i.e. generally between two to three weeks after the start of the cultivation, on a laboratory track sprayer with spray liquors comprising the compositions according to the invention, mixtures or components used individually, as WG, WP, EC or other formulations. The application rate for the spray application was 100-600 l of water/ha. After the treatment, the plants were returned to the greenhouses and, when required, treated with fertilizer and watered. • 3. Selective pre-emergence action: seeds of various crop species (origins) were sown in a 8-13 cm diameter pot filled with natural soil of a standard field soil (loamy silt; non-sterile) and covered with a covering soil layer of about 1 cm. The pots were then cultivated in a greenhouse (12-16 h of light, temperature day 20-22° C., night 15-18° C.) until the time of application. The pots were treated at the BBCH stage 00-10 of the seeds/plants on a laboratory track sprayer with spray liquors comprising the compositions according to the invention, mixtures or components used individually, as WG, WP, EC or other formulations. The application rate for the spray application was 100-600 l of water/ha. […]
# [2] = tested on: ALOMY sensitive (Alopecurus myosuroides); assay: as above; conditions: sensitive biotype, g of AS/ha: (A) 90, (B) 1200, (A)+(B) 90 + 1200
# Protocol: as §1, §2, §3
# [3] = tested on: MATCH sensitive (Matricaria chamomilla); assay: as above; conditions: sensitive biotype, g of AS/ha: (A) 90, (B) 1200, (A)+(B) 90 + 1200, (C) 10
# Protocol: as §1, §2, §3
# [4] = tested on: ALOMY resistant (Alopecurus myosuroides); assay: as above; conditions: resistant biotype, g of AS/ha: (A) 90, (B) 1200, (A)+(B) 90 + 1200
# Protocol: as §1, §2, §3
# STEME = Stellaria media = assay: Greenhouse trial, activity with different soil types (test method 7); conditions: g of AS/ha: (A) 120, (B) 1200, (A)+(B) 120 + 1200
# Protocol: as §1, §2, §3
# [5] = tested on: TRZAS = Triticum aestivum, summer wheat; assay: as above; conditions: g of AS/ha: (A) 120, (B) 1200, (A)+(B) 120 + 1200
# Protocol: as §1, §2, §3
# [6] = tested on: HORVS = Hordeum vulgare, summer barley; assay: Greenhouse trial, selective post-emergence (PO) action on crop plant (test method 4); conditions: PO application, g of AS/ha: (A) 120, (B) 1200, (A)+(B) 120 + 1200, about 3 weeks after application
# Protocol: as §1
# as §2, with “group. […]” for “group.”
# AVEFA = Avena fatua [7] = assay: Greenhouse trial, pre-emergence (PE) action against weeds (test method 1); conditions: PE application; g of AS/ha: (A) 90, (B) 1200, (A)+(B) 90 + 1200
# Protocol: as §1, §2
# (§4) (notes: the term “seeds” also includes vegetative propagation forms such as, for example, rhizome pieces; abbreviations used: h light=hours of illumination, g of AS/ha=gram of active substance per hectare, l/ha=liter per hectare, S=sensitive, R=resistant) • 1. Pre-emergence action against weeds: seeds of various broad-leaved weed and weed grass biotypes (origins) were sown in a 8-13 cm diameter pot filled with natural soil of a standard field soil (loamy silt; non-sterile) and covered with a covering soil layer of about 1 cm. The pots were then cultivated in a greenhouse (12-16 h of light, temperature day 20-22° C., night 15-18° C.) until the time of application. The pots were treated at the BBCH stage 00-10 of the seeds/plants on a laboratory track sprayer with spray liquors comprising the compositions according to the invention, mixtures or components used individually, as WG, WP, EC or other formulations. The application rate for the spray application was 100-600 l of water/ha. After the treatment, the plants were returned to the greenhouses and, when required, treated with fertilizer and watered. • 2. Post-emergence action against weeds: seeds of various broad-leaved weed and weed grass biotypes (origins) were sown in a 8-13 cm diameter pot filled with natural soil of a standard field soil (loamy silt; non-sterile) and covered with a covering soil layer of about 1 cm. The pots were then cultivated in a greenhouse (12-16 h of light, temperature day 20-22° C., night 15-18° C.) until the time of application. […]
# [8] = tested on: MATCH = Matricaria chamomilla; assay: as above; conditions: PE application; g of AS/ha: (A) 90, (B) 1200, (A)+(B) 90 + 1200
# Protocol: as §1, §2, §4
# AVEFA = Avena fatua [9] = assay: Greenhouse trial, PE application with different irrigation variations (test method 6); conditions: g of AS/ha: (A) 120, (B) 1200, (A)+(B) 120 + 1200
# Protocol: as §1, §2, §3
# [10] = tested on: TRZAW = Triticum aestivum, winter wheat; assay: as above; conditions: g of AS/ha: (A) 120, (B) 1200, (A)+(B) 120 + 1200
# Protocol: as §1, §2, §3
smiles,measurement,setting,value
"CCC(CC)Nc1c([N+](=O)[O-])cc(C)c(C)c1[N+](=O)[O-] [(B) pendimethalin, N-(1-ethylpropyl)-3,4-dimethyl-2,6-dinitrobenzenamine]","activity MATCH resistant (visual assessment, scale 0-100% vs untreated)",[1],10%
same,"activity ALOMY sensitive (visual assessment, scale 0-100% vs untreated)",[2],30%
same,"activity MATCH sensitive (visual assessment, scale 0-100% vs untreated)",[3],10%
same,"activity ALOMY resistant (visual assessment, scale 0-100% vs untreated)",[4],40%
same,"activity STEME IU soil (visual assessment, scale 0-100% vs untreated)","STEME = Stellaria media; IU soil (loamy silt, standard field soil)",85%
same,"activity STEME IU/EC73 soil (visual assessment, scale 0-100% vs untreated)","STEME = Stellaria media; IU/EC73 soil (heavier soil, higher organic substance)",55%
same,"Difference of the soil types Δ^D, STEME",STEME = Stellaria media; IU/EC73 soil versus IU soil,Δ^D −30%
same,"activity on crop plant TRZAS IU soil (visual assessment, scale 0-100% vs untreated)",[5]; IU soil,5%
same,"Difference of the soil types Δ^D, TRZAS","[5]; IU/EC73 soil versus IU soil, crop plant",Δ^D −5%
same,"activity on crop plant TRZAS IU/EC73 soil (visual assessment, scale 0-100% vs untreated)",[5]; IU/EC73 soil,0%
same,"activity on crop plant HORVS (visual assessment, scale 0-100% vs untreated)",[6],10%
same,"activity AVEFA (visual assessment, scale 0-100% vs untreated)",AVEFA = Avena fatua [7],88%
same,"activity MATCH (visual assessment, scale 0-100% vs untreated)",[8],18%
same,"activity AVEFA (visual assessment, scale 0-100% vs untreated)",AVEFA = Avena fatua [9]; irrigation from above,5%
same,"activity AVEFA (visual assessment, scale 0-100% vs untreated)",AVEFA = Avena fatua [9]; irrigation from below,10%
same,"activity on crop plant TRZAW (visual assessment, scale 0-100% vs untreated)",[10]; irrigation from above,20%
same,"activity on crop plant TRZAW (visual assessment, scale 0-100% vs untreated)",[10]; irrigation from below,5%
